Test results from PMC8599534, “Isoprenylated Flavonoids as Cav3.1 Low Voltage-Gated Ca^2+ Channel Inhibitors from Salvia digitaloides” (Natural Products and Bioprospecting, 2021).
pIC50: −log10 of the molar value.

Target: T1, Cav3.1 low voltage-gated Ca^2+ channel (Homo sapiens, UniProt O43497)
T1 construct: gene CACNA1G
Experiment: electrophysiology: peak-current inhibition in HEK […] cells expressing human Cav3.[…]
Type: cell-based

T1 sequence (O43497 whole entry): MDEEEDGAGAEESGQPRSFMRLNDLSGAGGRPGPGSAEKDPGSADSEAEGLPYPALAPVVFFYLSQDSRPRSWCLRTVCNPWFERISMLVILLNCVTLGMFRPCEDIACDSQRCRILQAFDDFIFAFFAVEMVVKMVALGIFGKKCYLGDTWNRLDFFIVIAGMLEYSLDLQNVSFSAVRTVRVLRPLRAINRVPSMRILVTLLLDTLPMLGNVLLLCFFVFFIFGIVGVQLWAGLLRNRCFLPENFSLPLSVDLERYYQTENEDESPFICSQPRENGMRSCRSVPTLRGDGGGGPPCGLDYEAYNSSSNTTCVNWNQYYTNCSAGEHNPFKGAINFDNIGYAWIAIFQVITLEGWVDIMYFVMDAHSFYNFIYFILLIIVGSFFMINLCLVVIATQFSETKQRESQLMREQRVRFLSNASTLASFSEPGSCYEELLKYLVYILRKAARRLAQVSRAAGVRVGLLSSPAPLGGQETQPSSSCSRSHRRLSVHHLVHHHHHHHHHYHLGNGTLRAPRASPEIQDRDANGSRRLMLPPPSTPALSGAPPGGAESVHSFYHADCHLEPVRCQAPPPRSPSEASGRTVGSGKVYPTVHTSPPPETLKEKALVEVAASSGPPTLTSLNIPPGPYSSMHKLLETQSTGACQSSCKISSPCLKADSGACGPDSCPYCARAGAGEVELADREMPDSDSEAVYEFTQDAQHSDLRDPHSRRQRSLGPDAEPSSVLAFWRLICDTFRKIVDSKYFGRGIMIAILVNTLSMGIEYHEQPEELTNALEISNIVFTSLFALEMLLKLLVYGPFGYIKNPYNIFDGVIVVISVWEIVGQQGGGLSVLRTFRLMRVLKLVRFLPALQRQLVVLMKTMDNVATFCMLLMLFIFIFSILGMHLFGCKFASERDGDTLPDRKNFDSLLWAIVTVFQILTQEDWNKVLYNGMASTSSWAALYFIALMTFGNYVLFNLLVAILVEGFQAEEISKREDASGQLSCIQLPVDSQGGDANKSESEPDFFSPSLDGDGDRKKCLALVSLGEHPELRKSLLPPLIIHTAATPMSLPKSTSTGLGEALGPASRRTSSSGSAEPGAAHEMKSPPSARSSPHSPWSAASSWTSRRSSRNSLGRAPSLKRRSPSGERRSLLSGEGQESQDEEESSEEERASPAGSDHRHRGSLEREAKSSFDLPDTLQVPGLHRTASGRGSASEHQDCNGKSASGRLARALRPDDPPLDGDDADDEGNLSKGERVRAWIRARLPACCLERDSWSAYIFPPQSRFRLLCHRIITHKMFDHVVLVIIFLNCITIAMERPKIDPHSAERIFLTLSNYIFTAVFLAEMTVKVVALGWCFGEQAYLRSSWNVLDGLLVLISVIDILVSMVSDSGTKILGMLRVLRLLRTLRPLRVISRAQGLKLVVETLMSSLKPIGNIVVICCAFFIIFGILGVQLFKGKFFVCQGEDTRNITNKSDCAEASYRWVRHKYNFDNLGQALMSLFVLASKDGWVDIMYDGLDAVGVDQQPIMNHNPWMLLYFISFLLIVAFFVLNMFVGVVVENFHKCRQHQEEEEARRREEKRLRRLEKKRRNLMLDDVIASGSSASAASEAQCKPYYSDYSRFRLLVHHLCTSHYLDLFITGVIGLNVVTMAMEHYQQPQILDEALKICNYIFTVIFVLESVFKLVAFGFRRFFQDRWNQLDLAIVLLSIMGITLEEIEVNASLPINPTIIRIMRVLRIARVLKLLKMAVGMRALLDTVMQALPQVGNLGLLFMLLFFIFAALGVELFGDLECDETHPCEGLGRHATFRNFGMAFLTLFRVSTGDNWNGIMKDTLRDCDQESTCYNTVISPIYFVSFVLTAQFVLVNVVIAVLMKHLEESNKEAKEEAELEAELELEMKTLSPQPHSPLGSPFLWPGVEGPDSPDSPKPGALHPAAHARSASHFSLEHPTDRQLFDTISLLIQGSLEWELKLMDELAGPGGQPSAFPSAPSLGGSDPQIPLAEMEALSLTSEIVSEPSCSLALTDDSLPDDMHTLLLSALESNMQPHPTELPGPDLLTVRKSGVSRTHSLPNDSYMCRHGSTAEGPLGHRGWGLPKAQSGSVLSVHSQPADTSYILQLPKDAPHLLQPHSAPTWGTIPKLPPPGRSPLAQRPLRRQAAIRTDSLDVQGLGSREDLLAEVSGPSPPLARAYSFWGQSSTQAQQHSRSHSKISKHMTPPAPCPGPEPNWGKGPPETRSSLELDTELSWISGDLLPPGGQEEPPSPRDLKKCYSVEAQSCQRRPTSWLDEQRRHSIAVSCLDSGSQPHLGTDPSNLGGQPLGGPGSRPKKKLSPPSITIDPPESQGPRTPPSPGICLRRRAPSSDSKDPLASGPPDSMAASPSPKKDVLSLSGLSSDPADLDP

pIC50: 5.46
Compound: CC(C)=CCc1c([C@@H]2CC(=O)c3c(O)cc(O)c(CC=C(C)C)c3O2)cc2c(c1O)OC(C)(C)C=C2 [compound 2, 5,7,3′-trihydroxy-4′,5′-(2⁗,2⁗-dimethylpyran)-8,2′-di(3-methyl-2-butenyl)-(2S)-flavanone]
